Reference: PubChem BioAssay (NCI)
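Compound exposure: 48 hours, 5 concentrations, 96-well plates. GI50 marks 50% less growth. TGI marks complete inhibition of growth.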

What follows are molecules tested on XF 498 CNS (assay: DTP human tumour cell line panel, 48 h).
`O=C(Nc1c(Cl)cc([N+](=O)[O-])cc1Cl)C(=O)C(C1OC(=O)c2ccccc21)[N+](=O)[O-]` (configuration not stated) showed a TGI of over 100 µM. Work on `Cc1c(C(=O)/C=C/c2ccccc2)[n+](=O)c2ccccc2n1[O-]` yielded a TGI of 24.6 µM. With `COc1ccc(CC2NCCc3cc(OC)c(OC)cc32)cc1Br` (configuration not stated) the TGI was 47 µM. Work on `c1ccc(C2Nc3ccccc3C3OCCCC23)cc1` (configuration not stated) yielded a TGI of over 100 µM.

The molecules below were run on DLD-1 colon (assay: DTP human tumour cell line panel, 48 h).
In the case of `O=C1[C@@H]2C(c3ccccc3F)=NO[C@@H]2C(=O)N1c1ccc(Cc2ccc(N3C(=O)[C@H]4C(c5ccccc5F)=NO[C@H]4C3=O)cc2)cc1`, the TGI is reported as over 100 µM. `C=CCc1ccc(Oc2cc(CC=C)c3c(c2O)O[C@@H](CO)[C@H]3c2ccc(O)c(-c3cc(CC=C)ccc3O)c2)cc1` gave a TGI of over 100 µM. In the case of `O=C(NCO)NCOCn1c(=O)n(CO)c(=O)n(CO)c1=O`, the TGI is reported as 64.4 µM. In the case of `O=C1OC2CCCC[C@@H]2C2C[C@]34CCCCC3[C@@H](C(=O)O4)C12` (some centres not stated), the TGI is reported as over 100 µM. For `C=C1C(=O)OC2/C=C(\COC(C)=O)CCC(OC(C)=O)C3=CC(OC3=O)C12` (configuration not stated), the TGI was 9.92 µM. `C/C(N=NC(=S)N(C)C)=C1\C=CC=CN1O` gave a TGI of over 21.2 µM. With `O=C1CCC(O)=C1N=Nc1ccccc1` the TGI was over 100 µM. For `NC(=O)NCc1c(C(N)=O)ncn1Cc1ccccc1`, the TGI was over 100 µM. Work on `O=C1CSC(/C(=N/Nc2ccccc2)c2nc3ccccc3[nH]2)=N1` yielded a TGI of over 100 µM. Molecule `O=C(c1ccccc1)C1OC12C(=O)Nc1ccccc12` (configuration not stated) has a TGI of over 100 µM. `COc1ccc2nc(NC(=O)C(=O)C(C#N)c3ccc([N+](=O)[O-])cc3)sc2c1` (configuration not stated) was tested, and the TGI was over 100 µM. For `O=C(O)[C@H](NS(=O)(=O)c1ccc([N+](=O)[O-])cc1)c1ccccc1`, the TGI was over 100 µM. With `S=C1OC2CCCC[C@H]2O1` (some centres not stated) the TGI was over 100 µM. Work on `O=C1/C(=C/c2cccc([N+](=O)[O-])c2)COc2ccc(Br)cc21` yielded a TGI of over 100 µM. `CSC(C1c2ccccc2N(c2ccc(C)cc2)c2[nH]c(=O)n(C)c(=O)c21)S(=O)(=O)c1ccc(C)cc1` (configuration not stated) showed a TGI of over 100 µM. In the case of `CCOC(=O)NC(=O)c1cn(CCCOC(=O)CCCCCCCCCCC(=O)OCCCn2cc(C(=O)NC(=O)OCC)c(=O)[nH]c2=O)c(=O)[nH]c1=O`, the TGI is reported as over 100 µM. `COc1cc(/C=C(\C#N)c2ccccc2)cc(OC)c1` gave a TGI of over 100 µM. With `N#Cc1cccnc1Cl` the TGI was over 100 µM. For `CCCCCCCCCCCC(=O)OCC1OC(OC)C(NC(=O)N(CCCl)N=O)C(O)C1O` (configuration not stated), the TGI was 52.3 µM. `C=CC/C=C/C/C=C/CCCCCCCc1cccc(O)c1C(=O)O` was tested, and the TGI was over 100 µM. `COc1ccc(OC)c2c(C(=O)O)c(Cc3ccccc3)ccc12` was tested, and the TGI was over 100 µM. Work on `O=C(Nc1c(Cl)cc([N+](=O)[O-])cc1Cl)C(=O)C(C1OC(=O)c2ccccc21)[N+](=O)[O-]` (configuration not stated) yielded a TGI of over 100 µM. With `Cc1c(C(=O)/C=C/c2ccccc2)[n+](=O)c2ccccc2n1[O-]` the TGI was 27.5 µM. For `N#CC1CC2(C1)OCCS2` (configuration not stated), the TGI was over 100 µM. `C1C[OH+]CC[OH+]CC[OH+]CC[OH+]CC[OH+]1.[Cl-].[V]` showed a GI50 of over 100 µM and a TGI of over 100 µM. `COc1ccc(CC2NCCc3cc(OC)c(OC)cc32)cc1Br` (configuration not stated) showed a TGI of over 100 µM. `c1ccc(C2Nc3ccccc3C3OCCCC23)cc1` (configuration not stated) showed a TGI of over 100 µM.

The molecules below were run on T-47D breast (assay: DTP human tumour cell line panel, 48 h).
`Cn1c2ccccc2c(=O)c2ccc(Cl)cc21` gave a TGI of over 10 µM. `CC(CO)(CO)NCCCCn1ccc2c1C(=O)c1c(c(O)c3ccccc3c1O)C2=O` was tested, and the GI50 was 21.1 µM and the TGI was 65.8 µM. Molecule `O=S(=O)(Nc1cc(Sc2cccc3cccnc23)c(O)c2ccccc12)c1ccccc1` has a GI50 of 1.56 µM and a TGI of 4.79 µM. Molecule `CN(C)C(=O)[C@H](O)[C@H](Cc1ccccc1)NC(=O)c1cc2cc(Cl)ccc2[nH]1` has a GI50 of 25.1 µM and a TGI of over 96.7 µM. Work on `CC(C)(C[C@H]1CN(S(=O)(=O)c2cccc(C(F)(F)F)c2)c2cc(-c3cc(F)cc(OC(F)F)c3)ccc2O1)C(=O)O` yielded a GI50 of 5.19 µM and a TGI of 29.2 µM. `Cc1ccc(-c2nc3ccc(Cl)cc3c(=O)n2N2C(=O)CSC2c2ccccc2Cl)cc1` (configuration not stated) showed a GI50 of 3.82 µM and a TGI of over 100 µM. Molecule `O=C(O)C1C(Br)(c2ccccc2)C1(Br)c1ccccc1` (configuration not stated) has a TGI of over 100 µM. `C#Cc1c(I)n(C2OC(CO[Si](C)(C)C(C)(C)C)C3OC(C)(C)OC32)c(=O)[nH]c1=O` (configuration not stated) gave a GI50 of 5.42 µM and a TGI of 28 µM. `CCSc1nc(SCC)c2cn[nH]c2n1` gave a GI50 of 34.2 µM and a TGI of over 100 µM. For `ClCC[N+]12CC[N+](CCCl)(CC1)C2`, the TGI was over 100 µM. With `COc1ccc(CCN2COc3c([C@@H](C)CCC=C(C)C)ccc(C)c3C2)cc1OC` the GI50 was 1.78 µM and the TGI was 3.8 µM. With `COc1cc(C(=O)c2cc(C)c3[nH]c4ccc(C)cc4c3c2C)cc(OC)c1OC` the GI50 was 0.287 µM and the TGI was over 100 µM. Molecule `C=C1C(=O)OC2/C=C(\COC(C)=O)CCC(OC(C)=O)C3=CC(OC3=O)C12` (configuration not stated) has a TGI of 53.4 µM. `Cc1ccc2[nH]c(O)c(N=Nc3ccc(S(N)(=O)=O)cc3)c2c1` gave a GI50 of 15.3 µM and a TGI of over 25 µM. For `C/C(N=NC(=S)N(C)C)=C1\C=CC=CN1O`, the TGI was over 100 µM. Molecule `C=C1CCC(CC[C@@H]2CC[C@]3(OC2)O[C@@]2(O)CC[C@]3(C)OC2(C)C)C(C)(C)[C@H]1C/C=C1/C(=O)OC[C@@H]1O` (some centres not stated) has a TGI of 6.15 µM. Molecule `Cn1c(=O)c(Cc2ccccc2F)cc2cnc(NC3CCOCC3)nc21` has a GI50 of over 25 µM and a TGI of over 25 µM. `COc1cc(/C=C/c2ccc(OC)c(OC)c2)cc(OC)c1` was tested, and the TGI was over 100 µM. For `CC1(C)[C@@H](OC(N)=O)[C@H]2O[C@H]2[C@]2(C=O)[C@H]3CC[C@]4(C)[C@@H](c5ccc(=O)oc5)[C@@H](Cl)C[C@]4(O)C3=CC[C@@H]12`, the GI50 was 0.00656 µM and the TGI was 0.0181 µM. With `CCCCON(OC(=O)c1ccc2ccc3cccc4ccc1c2c34)C(C)=O` the GI50 was 29.7 µM and the TGI was over 100 µM. For `Cc1[nH]c2ccccc2c(=O)c1CC=C(Cl)Cl`, the GI50 was 29 µM and the TGI was over 100 µM.
